# Tested on: SEM cells
# Assay: cell viability relative to DMSO control; higher = less cytotoxic
# Conditions: 48 h
# How it was run: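 Viability is a per-plate percentage relative to DMSO wells, with cell-free wells as background. CellTiter-Glo One luminescence was read after 48 h at 37°C on 1536-well plates (5 μl) of NOMO1 or SEM (500 cells/well) or P12-Ichikawa (1000 cells/well) leukemia cells. The cells had been adapted for at least four passages in each medium and pin-dosed with library compounds in DMSO from 47 μM to 0.79 nM in 11 threefold steps.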
# [1] = HPLM + 10% dialyzed FBS, 0.000781 µM
# [2] = HPLM + 10% dialyzed FBS, 0.00234 µM
# [3] = HPLM + 10% dialyzed FBS, 0.00702 µM
# [4] = HPLM + 10% dialyzed FBS, 0.0211 µM
# [5] = HPLM + 10% dialyzed FBS, 0.0632 µM
# [6] = HPLM + 10% dialyzed FBS, 0.19 µM
# [7] = HPLM + 10% dialyzed FBS, 0.569 µM
# [8] = HPLM + 10% dialyzed FBS, 1.71 µM
# [9] = HPLM + 10% dialyzed FBS, 5.12 µM
# [10] = HPLM + 10% dialyzed FBS, 15.4 µM
# [11] = HPLM + 10% dialyzed FBS, 46.1 µM
# [12] = RPMI 5 mM glucose + 10% FBS, 0.000781 µM
# [13] = RPMI 5 mM glucose + 10% FBS, 0.00234 µM
# [14] = RPMI 5 mM glucose + 10% FBS, 0.00702 µM
# [15] = RPMI 5 mM glucose + 10% FBS, 0.0211 µM
# [16] = RPMI 5 mM glucose + 10% FBS, 0.0632 µM
# [17] = RPMI 5 mM glucose + 10% FBS, 0.19 µM
# [18] = RPMI 5 mM glucose + 10% FBS, 0.569 µM
# [19] = RPMI 5 mM glucose + 10% FBS, 1.71 µM
# [20] = RPMI 5 mM glucose + 10% FBS, 5.12 µM
# [21] = RPMI 5 mM glucose + 10% FBS, 15.4 µM
# [22] = RPMI 5 mM glucose + 10% FBS, 46.1 µM
# [23] = RPMI 5 mM glucose + 10% dialyzed FBS, 0.000781 µM
# [24] = RPMI 5 mM glucose + 10% dialyzed FBS, 0.00234 µM
# [25] = RPMI 5 mM glucose + 10% dialyzed FBS, 0.00702 µM
# [26] = RPMI 5 mM glucose + 10% dialyzed FBS, 0.0211 µM
# [27] = RPMI 5 mM glucose + 10% dialyzed FBS, 0.0632 µM
# [28] = RPMI 5 mM glucose + 10% dialyzed FBS, 0.19 µM
# [29] = RPMI 5 mM glucose + 10% dialyzed FBS, 0.569 µM
# [30] = RPMI 5 mM glucose + 10% dialyzed FBS, 1.71 µM
# [31] = RPMI 5 mM glucose + 10% dialyzed FBS, 5.12 µM
# [32] = RPMI 5 mM glucose + 10% dialyzed FBS, 15.4 µM
# [33] = RPMI 5 mM glucose + 10% dialyzed FBS, 46.1 µM
Compound,cell viability [1] [%],cell viability [2] [%],cell viability [3] [%],cell viability [4] [%],cell viability [5] [%],cell viability [6] [%],cell viability [7] [%],cell viability [8] [%],cell viability [9] [%],cell viability [10] [%],cell viability [11] [%],cell viability [12] [%],cell viability [13] [%],cell viability [14] [%],cell viability [15] [%],cell viability [16] [%],cell viability [17] [%],cell viability [18] [%],cell viability [19] [%],cell viability [20] [%],cell viability [21] [%],cell viability [22] [%],cell viability [23] [%],cell viability [24] [%],cell viability [25] [%],cell viability [26] [%],cell viability [27] [%],cell viability [28] [%],cell viability [29] [%],cell viability [30] [%],cell viability [31] [%],cell viability [32] [%],cell viability [33] [%]
COC1=C(OCCCN2CCOCC2)C=CC\3=C1/N=C(/NC(=O)C4=CN=C(N)N=C4)N5CC/N=C35,95.2,94.2,102,99.2,97.4,77.2,69.4,65.8,57.3,47.6,37.4,128,119,110,106,104,97.6,82.4,88.1,72,63,42.8,89.3,101,93.2,95.5,86.3,83,66.5,59.3,56.6,51.8,35.1
Cc1ccccc1C(=O)Nc1ccc(C(=O)N2CCCC(O)c3cc(Cl)ccc32)c(C)c1 (stereo not given),109,97.2,97.9,112,113,117,131,42.2,108,127,121,122,109,123,136,141,127,137,32.9,140,151,146,103,116,112,140,132,136,149,56.3,146,140,133
CCOC(=O)C(C)OC1=CC=CC2=C1\C=C/N(CC(=O)NC3=CC=C4OCCOC4=C3)C2=O (stereo not given),77.7,85.4,92.1,93,102,92.3,92.4,97.4,103,100,102,80.1,87.8,88,88,93.2,90.2,93.5,95,109,98.1,92.6,90.1,94.9,102,89,85.4,98,99.2,104,99.1,88.2,112
Nc1c2c(nc3ccccc13)CCCC2,92.9,104,118,109,115,118,101,25.6,108,108,86.1,121,123,122,109,111,112,97.3,17.5,100,118,80.5,109,131,123,104,112,123,95.7,24.7,117,104,87.6
CCCCCCCCCCCCCC(=O)N[C@H](CO)[C@H](O)c1ccc([N+](=O)[O-])cc1,97.4,81.4,89.5,95.4,98.9,65.1,79.7,39.8,13.8,3.54,2.38,99.6,76.1,89.1,103,95.5,55.4,66.5,25.1,9.49,3.9,2.41,87.3,81.9,85.2,94.3,93.1,55.2,83,36,8.3,4.49,2.85
O=C(c1ccccc1)c1ccc2n1CCC2C(=O)O (stereo not given),117,118,104,107,114,113,112,113,81.9,67.8,77.6,–,–,–,–,–,–,–,–,–,–,–,124,121,129,134,125,121,118,114,90.3,59.4,72.2
CN1\C=N/C2=CC=C(NC3=CC(=CC=C3C)NC(=O)C4=CC(=CC=C4)C(C)(C)C#N)C=C2C1=O,101,93.6,112,117,107,101,87.4,95.5,74.8,79.4,44.1,113,122,107,114,113,105,101,96.7,87.7,84.2,31.9,93.6,97.9,92.4,115,101,107,101,102,70,75.8,34.9
